# Data taken from article PMC10227015, “From a drug repositioning to a structure-based drug design approach to tackle acute lymphoblastic leukemia” (Nature Communications, 2023).
# What was measured:
# Experiment in all cases: KINOMEscan competition binding
# Settings in all cases: OR0642 1 µM; read-out: %Control
# [1] = target: T1, ABL1(E255K)-phosphorylated (Homo sapiens, UniProt P00519, E255K)
# T1 construct: purchased Eurofins DiscoverX (KINOMEscan scanEDGE 97)
# Description: (§1) Kinome profiling was provided by Eurofins DiscoverX Corporation. Determination of the % control activity for 97 kinases was obtained through an active site-directed competition binding assay that quantitatively measure interactions between compound and kinases. OR0642 was used at 1 μM.
# (§2) Supplementary Table 3. KINOMEscan™ Profiling of OR0642. Competition binding assay to
# (§3) quantitatively measure interactions between OR0642 (1 µM) and 97 human kinases and disease
# (§4) relevant mutant variants.
# [2] = target: T2, ABL1(T315I)-phosphorylated (Homo sapiens, UniProt P00519, T315I)
# T2 construct: purchased Eurofins DiscoverX (KINOMEscan scanEDGE 97)
# Description: as §1, §2, §3, §4
# ADCK3 = target: T3, ADCK3 (Homo sapiens, UniProt Q8NI60)
# T3 construct: purchased Eurofins DiscoverX (KINOMEscan scanEDGE 97)
# Description: as §1, §2, §3, §4
# AKT1 = target: T4, AKT1 (Homo sapiens, UniProt P31749)
# T4 construct: purchased Eurofins DiscoverX (KINOMEscan scanEDGE 97)
# Description: as §1, §2, §3, §4
# AKT2 = target: T5, AKT2 (Homo sapiens, UniProt P31751)
# T5 construct: purchased Eurofins DiscoverX (KINOMEscan scanEDGE 97)
# Description: as §1, §2, §3, §4
# ALK = target: T6, ALK (Homo sapiens, UniProt Q9UM73)
# T6 construct: purchased Eurofins DiscoverX (KINOMEscan scanEDGE 97)
# Description: as §1, §2, §3, §4
# AURKA = target: T7, AURKA (Homo sapiens, UniProt O14965)
# T7 construct: purchased Eurofins DiscoverX (KINOMEscan scanEDGE 97)
# Description: as §1, §2, §3, §4
# AURKB = target: T8, AURKB (Homo sapiens, UniProt Q96GD4)
# T8 construct: purchased Eurofins DiscoverX (KINOMEscan scanEDGE 97)
# Description: as §1, §2, §3, §4
# BMPR2 = target: T9, BMPR2 (Homo sapiens, UniProt Q13873)
# T9 construct: purchased Eurofins DiscoverX (KINOMEscan scanEDGE 97)
# Description: as §1, §2, §3, §4
# BRAF = target: T10, BRAF (Homo sapiens, UniProt P15056)
# T10 construct: purchased Eurofins DiscoverX (KINOMEscan scanEDGE 97)
# Description: as §1, §2, §3, §4
# BRAF(V600E) = target: T11, BRAF(V600E) (Homo sapiens, UniProt P15056, V600E)
# T11 construct: purchased Eurofins DiscoverX (KINOMEscan scanEDGE 97)
# Description: as §1, §2, §3, §4
# BTK = target: T12, BTK (Homo sapiens, UniProt Q06187)
# T12 construct: purchased Eurofins DiscoverX (KINOMEscan scanEDGE 97)
# Description: as §1, §2, §3, §4
# CDK2 = target: T13, CDK2 (Homo sapiens, UniProt P24941)
# T13 construct: purchased Eurofins DiscoverX (KINOMEscan scanEDGE 97)
# Description: as §1, §2, §3, §4
# CDK3 = target: T14, CDK3 (Homo sapiens, UniProt Q00526)
# T14 construct: purchased Eurofins DiscoverX (KINOMEscan scanEDGE 97)
# Description: as §1, §2, §3, §4
# CDK9 = target: T15, CDK9 (Homo sapiens, UniProt P50750)
# T15 construct: purchased Eurofins DiscoverX (KINOMEscan scanEDGE 97)
# Description: as §1, §2, §3, §4
# CHEK1 = target: T16, CHEK1 (Homo sapiens, UniProt O14757)
# T16 construct: purchased Eurofins DiscoverX (KINOMEscan scanEDGE 97)
# Description: as §1, §2, §3, §4
# CSF1R = target: T17, CSF1R (Homo sapiens, UniProt P07333)
# T17 construct: purchased Eurofins DiscoverX (KINOMEscan scanEDGE 97)
# Description: as §1, §2, §3, §4
# CSNK1D = target: T18, CSNK1D (Homo sapiens, UniProt P48730)
# T18 construct: purchased Eurofins DiscoverX (KINOMEscan scanEDGE 97)
# Description: as §1, §2, §3, §4
# EGFR(L858R) = target: T19, EGFR(L858R) (Homo sapiens, UniProt P00533, L858R)
# T19 construct: purchased Eurofins DiscoverX (KINOMEscan scanEDGE 97)
# Description: as §1, §2, §3, §4
# ERBB2 = target: T20, ERBB2 (Homo sapiens, UniProt P04626)
# T20 construct: purchased Eurofins DiscoverX (KINOMEscan scanEDGE 97)
# Description: as §1, §2, §3, §4
# ERBB4 = target: T21, ERBB4 (Homo sapiens, UniProt Q15303)
# T21 construct: purchased Eurofins DiscoverX (KINOMEscan scanEDGE 97)
# Description: as §1, §2, §3, §4
# FAK = target: T22, FAK (Homo sapiens, UniProt Q05397)
# T22 construct: purchased Eurofins DiscoverX (KINOMEscan scanEDGE 97)
# Description: as §1, §2, §3, §4
# FGFR3 = target: T23, FGFR3 (Homo sapiens, UniProt P22607)
# T23 construct: purchased Eurofins DiscoverX (KINOMEscan scanEDGE 97)
# Description: as §1, §2, §3, §4
# FLT3 = target: T24, FLT3 (Homo sapiens, UniProt P36888)
# T24 construct: purchased Eurofins DiscoverX (KINOMEscan scanEDGE 97)
# Description: as §1, §2, §3, §4
# GSK3B = target: T25, GSK3B (Homo sapiens, UniProt P49841)
# T25 construct: purchased Eurofins DiscoverX (KINOMEscan scanEDGE 97)
# Description: as §1, §2, §3, §4
# IKK-alpha = target: T26, IKK-alpha (Homo sapiens, UniProt O15111)
# T26 construct: purchased Eurofins DiscoverX (KINOMEscan scanEDGE 97)
# Description: as §1, §2, §3, §4
# INSR = target: T27, INSR (Homo sapiens, UniProt P06213)
# T27 construct: purchased Eurofins DiscoverX (KINOMEscan scanEDGE 97)
# Description: as §1, §2, §3, §4
# JNK1 = target: T28, JNK1 (Homo sapiens, UniProt P45983)
# T28 construct: purchased Eurofins DiscoverX (KINOMEscan scanEDGE 97)
# Description: as §1, §2, §3, §4
# KIT = target: T29, KIT (Homo sapiens, UniProt P10721)
# T29 construct: purchased Eurofins DiscoverX (KINOMEscan scanEDGE 97)
# Description: as §1, §2, §3, §4
# LKB1 = target: T30, LKB1 (Homo sapiens, UniProt Q15831)
# T30 construct: purchased Eurofins DiscoverX (KINOMEscan scanEDGE 97)
# Description: as §1, §2, §3, §4
# MEK1 = target: T31, MEK1 (Homo sapiens, UniProt Q02750)
# T31 construct: purchased Eurofins DiscoverX (KINOMEscan scanEDGE 97)
# Description: as §1, §2, §3, §4
# MEK2 = target: T32, MEK2 (Homo sapiens, UniProt P36507)
# T32 construct: purchased Eurofins DiscoverX (KINOMEscan scanEDGE 97)
# Description: as §1, §2, §3, §4
# MET = target: T33, MET (Homo sapiens, UniProt P08581)
# T33 construct: purchased Eurofins DiscoverX (KINOMEscan scanEDGE 97)
# Description: as §1, §2, §3, §4
# MKNK1 = target: T34, MKNK1 (Homo sapiens, UniProt Q9BUB5)
# T34 construct: purchased Eurofins DiscoverX (KINOMEscan scanEDGE 97)
# Description: as §1, §2, §3, §4
# MKNK2 = target: T35, MKNK2 (Homo sapiens, UniProt Q9HBH9)
# T35 construct: purchased Eurofins DiscoverX (KINOMEscan scanEDGE 97)
# Description: as §1, §2, §3, §4
# MLK1 = target: T36, MLK1 (Homo sapiens, UniProt P80192)
# T36 construct: purchased Eurofins DiscoverX (KINOMEscan scanEDGE 97)
# Description: as §1, §2, §3, §4
# PAK1 = target: T37, PAK1 (Homo sapiens, UniProt Q13153)
# T37 construct: purchased Eurofins DiscoverX (KINOMEscan scanEDGE 97)
# Description: as §1, §2, §3, §4
# PAK2 = target: T38, PAK2 (Homo sapiens, UniProt Q13177)
# T38 construct: purchased Eurofins DiscoverX (KINOMEscan scanEDGE 97)
# Description: as §1, §2, §3, §4
# PCTK1 = target: T39, PCTK1 (Homo sapiens, UniProt Q00536)
# T39 construct: purchased Eurofins DiscoverX (KINOMEscan scanEDGE 97)
# Description: as §1, §2, §3, §4
# PIK3C2B = target: T40, PIK3C2B (Homo sapiens, UniProt O00750)
# T40 construct: purchased Eurofins DiscoverX (KINOMEscan scanEDGE 97)
# Description: as §1, §2, §3, §4
# PIK3CA = target: T41, PIK3CA (Homo sapiens, UniProt P42336)
# T41 construct: purchased Eurofins DiscoverX (KINOMEscan scanEDGE 97)
# Description: as §1, §2, §3, §4
# PIM1 = target: T42, PIM1 (Homo sapiens, UniProt P11309)
# T42 construct: purchased Eurofins DiscoverX (KINOMEscan scanEDGE 97)
# Description: as §1, §2, §3, §4
compound,measurement,setting,value
CCCN(c1nc(-c2nc(N)cc(N)n2)cs1)c1cc(-c2ccc(S(=O)(=O)N3CCN(C)CC3)cc2C(F)(F)F)ccc1C [OR0642],remaining binding at 1 µM,[1],96%
same,remaining binding at 1 µM,[2],89%
same,remaining binding at 1 µM,ADCK3,95%
same,remaining binding at 1 µM,AKT1,91%
same,remaining binding at 1 µM,AKT2,100%
same,remaining binding at 1 µM,ALK,80%
same,remaining binding at 1 µM,AURKA,96%
same,remaining binding at 1 µM,AURKB,85%
same,remaining binding at 1 µM,BMPR2,94%
same,remaining binding at 1 µM,BRAF,99%
same,remaining binding at 1 µM,BRAF(V600E),98%
same,remaining binding at 1 µM,BTK,92%
same,remaining binding at 1 µM,CDK2,100%
same,remaining binding at 1 µM,CDK3,97%
same,remaining binding at 1 µM,CDK9,98%
same,remaining binding at 1 µM,CHEK1,91%
same,remaining binding at 1 µM,CSF1R,100%
same,remaining binding at 1 µM,CSNK1D,100%
same,remaining binding at 1 µM,EGFR(L858R),72%
same,remaining binding at 1 µM,ERBB2,100%
same,remaining binding at 1 µM,ERBB4,100%
same,remaining binding at 1 µM,FAK,100%
same,remaining binding at 1 µM,FGFR3,79%
same,remaining binding at 1 µM,FLT3,100%
same,remaining binding at 1 µM,GSK3B,100%
same,remaining binding at 1 µM,IKK-alpha,65%
same,remaining binding at 1 µM,INSR,99%
same,remaining binding at 1 µM,JNK1,93%
same,remaining binding at 1 µM,KIT,91%
same,remaining binding at 1 µM,LKB1,99%
same,remaining binding at 1 µM,MEK1,97%
same,remaining binding at 1 µM,MEK2,96%
same,remaining binding at 1 µM,MET,100%
same,remaining binding at 1 µM,MKNK1,100%
same,remaining binding at 1 µM,MKNK2,79%
same,remaining binding at 1 µM,MLK1,91%
same,remaining binding at 1 µM,PAK1,100%
same,remaining binding at 1 µM,PAK2,98%
same,remaining binding at 1 µM,PCTK1,98%
same,remaining binding at 1 µM,PIK3C2B,100%
same,remaining binding at 1 µM,PIK3CA,100%
same,remaining binding at 1 µM,PIM1,100%
